Data set [1] concerns oral epidermoid (KB) carcinoma cell line. Nature of the data set: Cytotoxicity assay (sulforhodamine B), KB. In kind it is cell-based, human. The note with it: KB cells.
Procedure: (§3) Pure compounds are evaluated against the human cancer cell lines comprising our cytotoxicity screening panel. Cytotoxicity assays involving oral epidermoid (KB), colon (HCT116), prostate (LNCaP), breast (MCF7), Hela (cervical), leukemia (HL-60) melanoma (A375) and lung (A549) carcinoma cell lines, are performed using sulforhodamine B according to established protocols (Zhang et al., Journal of Medicinal Chemistry 2006; 49: 693-708; and Jutiviboonsuk A et al., Phytochemistry 2005; 66: 2745-2751.). KB and A375 cells are maintained in DMEM (Dulbecco's modified Eagle medium) medium. LNCaP and HL60 cells are maintained in RPMI1640 medium with hormone-free 10% heat-activated FBS (fetal bovine serum) supplemented with 0.1 nM testosterone. MCF7 and Hela cells are maintained and assayed in MEME (Minimum Essential Medium Eagle) medium containing 10 mg/L of insulin. HCT116 cells are maintained in McCoy's 5A medium supplemented with 10% fetal bovine serum. A549 cells are maintained in RPMI-1640 medium supplemented with 10% FCS. Serial dilutions of the compounds are prepared using 10% aqueous DMSO as solvent. The 190 μL cell suspension (3×10^4 cells in 1 ml media) is incubated with 10 μL sample solutions, in triplicate, in 96-well tissue culture plate at 37° C. in a humidified atmosphere of 5% CO2 in air for 72 hours. 10 μL 10% aqueous DMSO is used as control group. Then the cells are fixed to plastic substratum by the addition of 100 μL cold 20% aqueous trichloroacetic acid and washing with water after incubation at 4° C. for 30 min. After staining cells with 100 μL of 0.4% sulforhodamine B in 1% aqueous AcOH for 30 min, unbound dye is removed by rinsing with 1% aqueous AcOH. The bound dye is solubilized with 200 μL 10 mM unbuffered Tris base, pH 10, and the optical density is measured at 515 nm using an ELISA plate reader. The average data are expressed as a percentage, relative to the control. The IC50 values, the dose that inhibit cell growth by 50%, are calculated using nonlinear regression analysis (percent survival versus concentration).
For data set [2], the system named is lung (A549) carcinoma cell line. Nature of the data set: cells. In kind it is cell-based, human.
Procedure: as §3
Data set [3] has as its system breast (MCF7) carcinoma cell line. Nature of the data set: cells. In kind it is cell-based, human.
Procedure: as §3
In data set [4] the test system is colon (HCT116) carcinoma cell line. Kind of data set: Cytotoxicity assay (sulforhodamine B), HCT116. The conditions noted are these: read-out: Cytotoxic activity IC50, HCT116; HCT116 cells, 72 hours.
Procedure: as §3
The test system of data set [5] is panel of cancer cell lines comprising KB, HCT116, LNCaP, A549, MCF7, HL60, Hela and A375. The note with it: for IC50: read-out: Cell killing activity, IC50 values range over the panel, range over panel of human cancer cell lines.
For data set [6], the system named is 3T3-L1 murine adipocytes. Kind of data set: 3T3-L1 fat accumulation (triglyceride) assay. In kind it is cell-based. The note with it: differentiated 3T3-L1 adipocytes, 7 days, read-out: Anti-obesity activity (fat accumulation) EC50. The procedure: (§1) MV-A, MV-B, MV-C and MV-D are evaluated for their anti-obesity effects in 3T3-L1 murine adipocytes. 3T3-L1 cells are cultured in the presence of insulin to induce adipocyte differentiation.
(§2) Pure compounds are evaluated against 3T3-L1 cell line for their potential anti-obesity activity. […] After the cells reach 100% confluence, the culture medium is changed to a differentiation DMEM medium containing 10% FCS, […], 0.5 mM 3-isobutyl-1-methylxanthine (IBMX), 90 U/mL penicillin, […] and 10 μg/mL insulin for induction of the adipocyte form of the 3T3-L1 cells. After 2 days, the differentiation medium is changed back to the normal DMEM medium and refreshed with the normal medium every 2 days. After incubation of additional 7 days, the cells are seeded in two sets of 96-well plates (about 10,000 cells per well). The test compounds in different concentrations are then added to the wells with 0.5% aqueous DMSO as control group. After incubation of 7 days, the differentiated 3T3-L1 adipocytes are treated with 2% Triton-X 100 ([…]) for 30 min at room temperature followed by sonication for 1 min. Fat accumulation is determined by measuring the liberated triglyceride using a Wato Triglyceride E-test Kit with the absorbance at 630/690 nm. The fat-accumulation rate is calculated as a percentage of the DMSO control. […] The cell viability of the differentiated 3T3-L1 adipocytes in another 96-well plate is treated with a Wako Cell Counting Kit-8 Test and measured with the absorbance at 450 nm. The cell viability is calculated as a percentage of the control.

The test system of data set [7] is 3T3-L1 murine adipocytes. Nature of the data set: 3T3-L1 adipocyte cell viability. The conditions noted are these: differentiated 3T3-L1 adipocytes. The data set is classed as cell-based. As to the method:
as §1, §2

Each structure is given as a SMILES string. *1 amine or outer side, *2 acyl side, *3 side chain or, on linkers, in order; H or OH if unused. Where a SMILES comes first, the peptide text is derived from it. [ ]: non-standard residue; d: D form. X3 = CC1C(C)C1C(N[*:1])C(=O)[*:2]; NMeL = CN[CH](CC(C)C)C(=O)O; NMeA = CN[CH](C)C(=O)O A value given as a limit tells only on which side of the number the result lay.

What is called IC50 is the concentration that gives 50% inhibition. As for `CC(C)CC1NC(=O)C(C)N(C)C(=O)C(C)N(C)C(=O)C(C2C(C)C2C)NC(=O)C(CC(C)C)N(C)C(=O)C(C)N(C)C(=O)C(CC(C)C)NC1=O` (centres unmarked) [Compound 3] (cyclo([X3][NMeA][NMeA]LL[NMeA][NMeL]); configuration not given here), the IC50 turned out to be 12.5 nM in data set [1] (72 hours, read-out: Cytotoxic activity IC50, KB); 51.8 nM in data set [2] (72 hours, read-out: Cytotoxic activity IC50, A549); 26.6 nM in data set [3] (72 hours, read-out: Cytotoxic activity IC50, MCF7); 43.5 nM in data set [4]. Further, the “Reduction in activity in comparison with 1” value in data set [5] (compound with only one DMCPA residue versus 1) is “at least 100 times”.

As usually defined, the EC50 is the midpoint of the concentration-response curve. Take `CC(C)C[C@H]1NC(=O)[C@@H](C)N(C)C(=O)[C@H](C)N(C)C(=O)[C@H](C2[C@@H](C)[C@@H]2C)NC(=O)[C@H](CC(C)C)N(C)C(=O)[C@H](C)N(C)C(=O)[C@@H](CC(C)C)NC1=O` (stereo partly drawn) [MV-C] (HELM PEPTIDE1{[meA].[meL].[C[C@@H]1C([C@H](N[*:1])C(=O)[*:2])[C@H]1C].[meA].[C[C@H](C(=O)[*:2])N(C)[*:1]].[dL].[dL]}$PEPTIDE1,PEPTIDE1,1:R1-7:R2$$$V2.0): the concentration for a half-maximal effect (EC50) in the data set with 3T3-L1 murine adipocytes [6] was found to be 38.9 nM. Moreover, the IC50 in the data set on 3T3-L1 murine adipocytes [7] was 689 nM; in data set [5], 12 to 60 nM.

For orientation: IC90 means the concentration needed for an effect of 90%. For `CC[C@]1(O)C[C@@H]2CN(CCc3c([nH]c4ccccc34)[C@@](C(=O)OC)(c3cc4c(cc3OC)N(C)[C@H]3[C@@](O)(C(=O)OC)[C@H](OC(C)=O)[C@]5(CC)C=CCN6CC[C@]43[C@@H]65)C2)C1` [Vinblastine, reference compound], the “Cytotoxic activity IC90, KB” value in data set [1] stood at 10.1 nM. The IC90 in data set [2] (Homo sapiens, read-out: Cytotoxic activity IC90, A549) was above 40 nM; in data set [3] (Homo sapiens, read-out: Cytotoxic activity IC90, MCF7) it was above 50 nM.

For the molecule `CC(C)C[C@H]1NC(=O)[C@@H](C)N(C)C(=O)[C@H](C)N(C)C(=O)[C@H](C2[C@@H](C)[C@@H]2C)NC(=O)[C@H](CC(C)CO)N(C)C(=O)[C@H](C)N(C)C(=O)[C@@H](C2[C@@H](C)[C@@H]2C)NC1=O` (some centres unmarked) [MV-B], the EC50 with 3T3-L1 murine adipocytes [6] stood at 2.6 nM. The results for the IC50 (in the data set on 3T3-L1 murine adipocytes [7]; in data set [5]) were 83.7 nM and 0.7 to 9.1 nM, respectively.

For the origin of these results see patent US9963485B2, “Cycloheptapeptide agents for treatment of cancer and obesity diseases” (Hong Kong Baptist University, priority 2012, dated 2018).
